From US10836768B2, “N-acyl-(3-substituted)-(8-substituted)-5,6-dihydro-[1,2,4]triazolo[4,3-a]pyrazines as selective NK-3 receptor antagonists” (OGEDA SA, priority 2013, dated 2020) come the findings set out here.

SMILES strings stand for the structures.

This series is described as follows: Determination of plasma protein binding (equilibrium dialysis). The series is classed as in vitro ADME. Conditions: bound drug fraction to plasma protein; 4 hours at 37° C. An excerpt:
Determination of Plasma Protein Binding
The pharmacokinetic and pharmacodynamic properties of chemicals/drugs are largely a function of the reversible binding of chemicals to plasma or serum proteins. […] Consequently, the extent of the plasma protein binding (PPB) of a compound influences its action as well as its distribution and elimination.
The determination of plasma protein binding (PPB) of a compound is enabled by equilibrium dialysis, an accepted and standard method for reliable estimation of the non-bound drug fraction in plasma. RED (Rapid Equilibrium Dialysis) device insert is made of two side-by-side chambers separated by an O-ring-sealed vertical cylinder of dialysis membrane (MWCO ˜8,000). […] After 4 hours incubation at 37° C. under shaking, an aliquot is removed from each chamber and analyzed by a LC-MS/MS procedure enables the determination of both free and bound drug.
The “free fraction” may be calculated as 100%−% rPPB (i.e. the complementary percentage of that disclosed in Table 4, corresponding to the drug concentration that is unbound and therefore available to engage biological target and elicit pharmacological activity).
In general terms: In equilibrium dialysis free small molecules cross a membrane that holds back macromolecules.
Turning to `Cc1nsc(-c2nnc3n2CCN(C(=O)c2cc(F)c(F)c(F)c2F)C3C)n1` (racemic) [Compound 31, (8-methyl-3-(3-methyl-1,2,4-thiadiazol-5-yl)-5,6-dihydro-[1,2,4]triazolo[4,3-a]pyrazin-7(8H)-yl)(2,3,4,5-tetrafluorophenyl)methanone], the “Exposure (% rPPB)” value amounted to 31%. The figure for `CCc1noc(-c2nnc3n2CCN(C(=O)c2ccc(F)cc2)C3C)n1` (racemic) [Compound 40, (3-(3-ethyl-1,2,4-oxadiazol-5-yl)-8-methyl-5,6-dihydro-[1,2,4]triazolo[4,3-a]pyrazin-7(8H)-yl)(4-fluorophenyl)methanone] is 24%; for `COc1cccc(C(=O)N2CCn3c(-c4nc(C)ns4)nnc3[C@H]2C)c1` [Compound 27, (R)-(3-methoxyphenyl)(8-methyl-3-(3-methyl-1,2,4-thiadiazol-5-yl)-5,6-dihydro-[1,2,4]triazolo[4,3-a]pyrazin-7(8H)-yl)methanone] it is 24%. Consider `Cc1nsc(-c2nnc3n2CCN(C(=O)c2cc(F)c(F)c(F)c2)[C@@H]3C)n1` [Compound 7, (R)-(8-methyl-3-(3-methyl-1,2,4-thiadiazol-5-yl)-5,6-dihydro-[1,2,4]triazolo[4,3-a]pyrazin-7(8H)-yl)(3,4,5-trifluorophenyl)methanone], for which the “Exposure (% rPPB)” value amounted to 26%. In the case of `C[C@@H]1c2nnc(-c3nc(C(C)(F)F)no3)n2CCN1C(=O)c1ccc(F)cc1` [Compound 43, (R)-(3-(3-(1,1-difluoroethyl)-1,2,4-oxadiazol-5-yl)-8-methyl-5,6-dihydro-[1,2,4]triazolo[4,3-a]pyrazin-7(8H)-yl)(4-fluorophenyl)methanone] it was 47%; in that of `Cc1nsc(-c2nnc3n2CCN(C(=O)c2cc(F)cc(F)c2)[C@@H]3C)n1` [Compound 17, (R)-(3,5-difluorophenyl)(8-methyl-3-(3-methyl-1,2,4-thiadiazol-5-yl)-5,6-dihydro-[1,2,4]triazolo[4,3-a]pyrazin-7(8H)-yl)methanone], 24%; in that of `C[C@H](F)c1noc(-c2nnc3n2CCN(C(=O)c2ccc(F)cc2)[C@@H]3C)n1` [Compound 45-1], 27%. Consider `Cc1nsc(-c2nnc3n2CCN(C(=O)c2ccc(C#N)cc2)[C@@H]3C)n1` [Compound 29, (R)-4-(8-methyl-3-(3-methyl-1,2,4-thiadiazol-5-yl)-5,6,7,8-tetrahydro-[1,2,4]triazolo[4,3-a]pyrazine-7-carbonyl)benzonitrile], for which the “Exposure (% rPPB)” value is listed as 10%. With `Cc1ccc(C(=O)N2CCn3c(-c4nc(C)ns4)nnc3[C@H]2C)cc1` [Compound 19, (R)-(8-methyl-3-(3-methyl-1,2,4-thiadiazol-5-yl)-5,6-dihydro-[1,2,4]triazolo[4,3-a]pyrazin-7(8H)-yl)(p-tolyl)methanone], the “Exposure (% rPPB)” value was determined as 51%. As for `Cc1nsc(-c2nnc3n2CCN(C(=O)c2cccc(F)c2)[C@@H]3C)n1` [Compound 15, (R)-(3-fluorophenyl)(8-methyl-3-(3-methyl-1,2,4-thiadiazol-5-yl)-5,6-dihydro-[1,2,4]triazolo[4,3-a]pyrazin-7(8H)-yl)methanone], the “Exposure (% rPPB)” value amounted to 20%.

For `Cc1nsc(-c2nnc3n2CCN(C(=O)c2ccc(F)c(F)c2)C3C)n1` (racemic) [Compound 32], the “Exposure (% rPPB)” value was 25%.

Take `Cc1nsc(-c2nnc3n2CCN(C(=O)c2ccc(C(F)(F)F)cc2)[C@@H]3C)n1` [Compound 21, (R)-(8-methyl-3-(3-methyl-1,2,4-thiadiazol-5-yl)-5,6-dihydro-[1,2,4]triazolo[4,3-a]pyrazin-7(8H)-yl)(4-(trifluoromethyl)phenyl) methanone]: the “Exposure (% rPPB)” value is listed as 38%. As to `Cc1nsc(-c2nnc3n2CCN(C(=O)c2ccc(F)c(F)c2F)C3C)n1` (racemic) [Compound 33, (8-methyl-3-(3-methyl-1,2,4-thiadiazol-5-yl)-5,6-dihydro-[1,2,4]triazolo[4,3-a]pyrazin-7(8H)-yl)(2,3,4-trifluorophenyl)methanone], the “Exposure (% rPPB)” value is 29%. Turning to `Cc1nsc(-c2nnc3n2CCN(C(=O)c2cc(F)c(F)c(F)c2F)[C@@H]3C)n1` [Compound 10, (R)-(8-methyl-3-(3-methyl-1,2,4-thiadiazol-5-yl)-5,6-dihydro-[1,2,4]triazolo[4,3-a]pyrazin-7(8H)-yl)(2,3,4,5-tetrafluorophenyl)methanone], the “Exposure (% rPPB)” value amounted to 30%. For the compound `C[C@H](F)c1noc(-c2nnc3n2CCN(C(=O)c2ccc(F)cc2)[C@@H]3C)n1` [Compound 45-2], the “Exposure (% rPPB)” value is 33%.

`CCC[C@@H]1c2nnc(-c3nc(C)ns3)n2CCN1C(=O)c1ccc(F)cc1` [Compound 24, (R)-(4-fluorophenyl)(3-(3-methyl-1,2,4-thiadiazol-5-yl)-8-propyl-5,6-dihydro-[1,2,4]triazolo[4,3-a]pyrazin-7(8H)-yl)methanone]: the “Exposure (% rPPB)” value is given as 48%. Turning to `Cc1nsc(-c2nnc3n2CCN(C(=O)c2cc(F)c(F)c(F)c2)C3C)n1` (racemic) [Compound 34, (8-methyl-3-(3-methyl-1,2,4-thiadiazol-5-yl)-5,6-dihydro-[1,2,4]triazolo[4,3-a]pyrazin-7(8H)-yl)(3,4,5-trifluorophenyl)methanone], the “Exposure (% rPPB)” value is 24%. In the case of `CCC1c2nnc(-c3nc(C)ns3)n2CCN1C(=O)c1ccc(F)cc1` (racemic) [Compound 23, (8-ethyl-3-(3-methyl-1,2,4-thiadiazol-5-yl)-5,6-dihydro-[1,2,4]triazolo[4,3-a]pyrazin-7(8H)-yl)(4-fluorophenyl)methanone] it was 34%; in that of `C[C@@H]1c2nnc(-c3nc(C(F)F)ns3)n2CCN1C(=O)c1ccc(F)cc1` [Compound 42, (R)-(3-(3-(difluoromethyl)-1,2,4-thiadiazol-5-yl)-8-methyl-5,6-dihydro-[1,2,4]triazolo[4,3-a]pyrazin-7(8H)-yl)(4-fluorophenyl)methanone], 16%; in that of `Cc1nsc(-c2nnc3n2CCN(C(=O)c2ccc(Cl)c(F)c2)C3C)n1` (racemic) [Compound 36, (4-chloro-3-fluorophenyl)(8-methyl-3-(3-methyl-1,2,4-thiadiazol-5-yl)-5,6-dihydro-[1,2,4]triazolo[4,3-a]pyrazin-7(8H)-yl)methanone], 60%. `Cc1nsc(-c2nnc3n2CCN(C(=O)c2ccc(F)c(Cl)c2)C3C)n1` (racemic) [Compound 35, (3-chloro-4-fluorophenyl)(8-methyl-3-(3-methyl-1,2,4-thiadiazol-5-yl)-5,6-dihydro-[1,2,4]triazolo[4,3-a]pyrazin-7(8H)-yl)methanone]: the “Exposure (% rPPB)” value turned out to be 52%.

For `COc1cc(C(=O)N2CCn3c(-c4nc(C)ns4)nnc3[C@H]2C)ccc1F` [Compound 25, (R)-(4-fluoro-3-methoxyphenyl)(8-methyl-3-(3-methyl-1,2,4-thiadiazol-5-yl)-5,6-dihydro-[1,2,4]triazolo[4,3-a]pyrazin-7(8H)-yl)methanone], the “Exposure (% rPPB)” value is reported as 19%. In the case of `Cc1nsc(-c2nnc3n2CCN(C(=O)c2ccccc2C)[C@@H]3C)n1` [Compound 26, (R)-(8-methyl-3-(3-methyl-1,2,4-thiadiazol-5-yl)-5,6-dihydro-[1,2,4]triazolo[4,3-a]pyrazin-7(8H)-yl)(o-tolyl)methanone], the “Exposure (% rPPB)” value is listed as 19%.
